The assay deals with various cancer cells. Description: MTT analysis, summary statements on various cancer cells. It is filed as cell-based. The procedure: Specifically, ASPC-1 cell line, which is a pancreatic cancer cell line, and HCT116 cell line, which is a colon cancer cell line, was incubated in a 100 mm culture dish using DMEM-10% FBS under 5% CO2 at 37° C., inoculated into each well of a 96-well plate at 20% confluence, and incubated for 24 hours. The incubated cell lines were treated with efavirenz at a concentration of 2 μM and fluoxetine at a concentration of 2 μM alone or in combination and cultured in a CO2 incubator for 24 hours. The culture medium was removed from each well, 100 pl of a fresh culture medium was added, and 10 μl of a 12 mM MTT stock solution (5 mg MTT/PBS) was added, and incubation was performed at 37° C. for 2 hours. Thereafter, 100 pl of SDS-HCl solution (1 g SDS/10 ml 0.01 M HCl), which was a reaction terminating solution, was added, incubation was performed at 37° C. for 4 hours, and OD was measured at 570 nm using a microplate leader. Percentage (%) growth inhibition was calculated by comparing the OD thus measured to the OD of the cells not treated with drugs.

[1] abbreviates: treated singly or in a complex, mixed or combined manner, MTT analysis.

Where two headings read alike, the source gives them in different places.

Take `Cc1cc(C#N)cc(C)c1Oc1nc(Nc2ccc(C#N)cc2)nc(N)c1Br` [etravirine]: under setting [1], the “growth inhibitory effect in cancer cells” value is on record as “a growth inhibitory effect is exerted”.

`CC(C)c1nc(CN(C)C(=O)N[C@H](C(=O)N[C@@H](Cc2ccccc2)C[C@H](O)[C@H](Cc2ccccc2)NC(=O)OCc2cncs2)C(C)C)cs1` [ritonavir]: under setting [1], the “growth inhibitory effect in cancer cells” value is listed as “a growth inhibitory effect is exerted”.

Take `CNCCC=C1c2ccccc2CCc2ccccc21` [nortriptyline]: the “growth inhibitory effect in cancer cells” value under setting [1] is recorded as “a growth inhibitory effect is exerted”.

For the molecule `CC(CN(C)C)CN1c2ccccc2CCc2ccccc21` (centres unmarked) [trimipramine], the “growth inhibitory effect in cancer cells” value under setting [1] was “a growth inhibitory effect is exerted”.

For `CN(C)C(=N)NC(=N)N` [metformin], under setting [1], the “growth inhibitory effect in cancer cells” value is “a growth inhibitory effect is exerted”.

As to `CC(C)CN(C[C@@H](O)[C@H](Cc1ccccc1)NC(=O)O[C@H]1CO[C@H]2OCC[C@H]21)S(=O)(=O)c1ccc(N)cc1` [darunavir], the “growth inhibitory effect in cancer cells” value is reported as “a growth inhibitory effect is exerted”.

In the case of `CNCCCC1c2ccccc2C=Cc2ccccc21` [protriptyline], the “growth inhibitory effect in cancer cells” value under setting [1] was “a growth inhibitory effect is exerted”.

On to `O=C1Nc2ccc(Cl)cc2[C@@](C#CC2CC2)(C(F)(F)F)O1` [efavirenz], for which the “growth inhibitory effect in cancer cells” value under setting [1] is on record as “a growth inhibitory effect is exerted”.

Consider `CN(C)CCC=C1c2ccccc2C(C)(C)c2ccccc21` [melitracene, melitracen], for which the “growth inhibitory effect in cancer cells” value under setting [1] is “a growth inhibitory effect is exerted”.

`Cc1cccc(C)c1OCC(=O)N[C@@H](Cc1ccccc1)[C@@H](O)C[C@H](Cc1ccccc1)NC(=O)[C@H](C(C)C)N1CCCNC1=O` [lopinavir]: the “growth inhibitory effect in cancer cells” value under setting [1] was “a growth inhibitory effect is exerted”.

Regarding `CNCCCN1c2ccccc2CCc2ccccc21` [desipramine], the “growth inhibitory effect in cancer cells” value under setting [1] was “a growth inhibitory effect is exerted”.

`Clc1ccc2c(c1)C(N1CCNCC1)=Nc1ccccc1O2` [amoxapine]: under setting [1], the “growth inhibitory effect in cancer cells” value is listed as “a growth inhibitory effect is exerted”.

Consider `CN(C)CCC=C1c2ccccc2CCc2ccccc21` [amitriptyline], for which the “growth inhibitory effect in cancer cells” value under setting [1] is reported as “a growth inhibitory effect is exerted”.

Regarding `COCCCC/C(=N\OCCN)c1ccc(C(F)(F)F)cc1` [fluvoxamine], the “growth inhibitory effect in cancer cells” value under setting [1] is given as “a growth inhibitory effect is exerted”.

As for `CNCCC(Oc1ccc(C(F)(F)F)cc1)c1ccccc1` (centres unmarked) [fluoxetine], the “growth inhibitory effect in cancer cells” value under setting [1] was “a growth inhibitory effect is exerted”.

`Fc1ccc([C@@H]2CCNC[C@H]2COc2ccc3c(c2)OCO3)cc1` [paroxetine]: the “growth inhibitory effect in cancer cells” value under setting [1] is listed as “a growth inhibitory effect is exerted”.

With `CNCC[C@H](Oc1cccc2ccccc12)c1cccs1` [duloxetine], the “growth inhibitory effect in cancer cells” value was “a growth inhibitory effect is exerted”.

In the case of `COC(=O)N[C@H](C(=O)N[C@@H](Cc1ccccc1)[C@@H](O)CN(Cc1ccc(-c2ccccn2)cc1)NC(=O)[C@@H](NC(=O)OC)C(C)(C)C)C(C)(C)C` [atazanavir], the “growth inhibitory effect in cancer cells” value under setting [1] was “a growth inhibitory effect is exerted”.

As for `CN(C)CCCN1c2ccccc2CCc2ccc(Cl)cc21` [clomipramine], the “growth inhibitory effect in cancer cells” value under setting [1] is on record as “a growth inhibitory effect is exerted”.

Regarding `CNCCCC12CCC(c3ccccc31)c1ccccc12` [maprotyline, maprotiline], under setting [1], the “growth inhibitory effect in cancer cells” value is reported as “a growth inhibitory effect is exerted”.

(Values after US20230201209A1, “PHARMACEUTICAL COMPOSITION FOR PREVENTING OR TREATING CANCER CONTAINING ANTIVIRAL AGENT AND ANTIDEPRESSANT AS ACTIVE INGREDIENTS” (FRONTBIO INC., priority 2020, published 2023).)
